The record followed here is ChEMBL document CHEMBL1140776, “Parasiticidal 2-alkoxy- and 2-aryloxyiminoalkyl trifluoromethanesulfonanilides” (2008).

Holding throughout (type): functional
The subject of assay [1] is Ctenocephalides felis. As to the kind of experiment: Parasiticidal activity against Ctenocephalides felis after 8 hrs by cat flea assay. On the set-up: concentration or dose not given beside the values.
Assay [2] relates to Haemonchus contortus. Description: Parasiticidal activity against Haemonchus contortus by larval assay.
The test system of assay [3] is Rhipicephalus sanguineus. Description: Parasiticidal activity against Rhipicephalus sanguineus assessed as mortality after 24 hrs by brown dog tick assay. On the set-up: concentration or dose not given beside the values.
In assay [4] the test system is Rhipicephalus sanguineus. As to the kind of experiment: Parasiticidal activity against Rhipicephalus sanguineus assessed per tick by brown dog tick assay.
The subject of assay [5] is Rhipicephalus sanguineus. Description: Parasiticidal activity against Rhipicephalus sanguineus assessed as mortality at 10 ug/tick by brown dog tick assay.
The test system of assay [6] is Ctenocephalides felis. As to the kind of experiment: Parasiticidal activity against Ctenocephalides felis assessed as mortality after 24 hrs by cat flea assay. The arrangement: concentration or dose not given beside the values.
The subject of assay [7] is Ctenocephalides felis. As to the kind of experiment: Parasiticidal activity against Ctenocephalides felis by cat flea assay.
Assay [8] relates to Teladorsagia circumcincta. Description: Parasiticidal activity against Ostertagia circumcincta McMaster.
The test system of assay [9] is Haemonchus contortus. Description: Parasiticidal activity against benzimidazole and levamisole-resistant Haemonchus contortus Lawes by larval assay.
Assay [10] deals with Haemonchus contortus. Description: Parasiticidal activity against avermectin-resistant Haemonchus contortus CAVR by larval assay.
In assay [11] the test system is Trichostrongylus colubriformis. Description: Parasiticidal activity against Trichostrongylus colubriformis.

In the case of `O=S(=O)(Nc1ccc(Cl)cc1/C(=N/OCc1ccc(C(F)(F)F)cc1C(F)(F)F)c1ccccc1)C(F)(F)F`, the Activity in the assay on Ctenocephalides felis [1] was found to be 21%. In addition, the LD99 with Haemonchus contortus [2] was 3.1 µM.

On to `O=S(=O)(Nc1ccc(Cl)cc1/C=N/OCc1ccc(C(F)(F)F)cc1C(F)(F)F)C(F)(F)F`, for which the Activity in the assay on Ctenocephalides felis [1] was determined as 10%. Also, in the assay with Haemonchus contortus [2], the LD99 came to 0.59 µM.

As to `CC/C(=N\OCC1CCCCC1)c1cc(Cl)ccc1NS(=O)(=O)C(F)(F)F`, the Activity with Rhipicephalus sanguineus [3], in the assay with Rhipicephalus sanguineus [5] and in the assay on Ctenocephalides felis [6] was 100% throughout. In the assay with Rhipicephalus sanguineus [4], the LD50 came out at 3.4 µg. In addition, the LD99 in the assay with Haemonchus contortus [2] was 7 µM. Further, in the assay with Ctenocephalides felis [7], the LC50 was 29 ng/cm2.

The compound `CC/C(=N\OCc1ccc(F)cc1F)c1cc(Cl)ccc1NS(=O)(=O)C(F)(F)F` showed an Activity with Ctenocephalides felis [1] of 95%. In the assay on Haemonchus contortus [2], this compound came in with an LD99 of 7.2 µM.

Take `CC/C(=N\OCc1ccc(C(F)(F)F)cc1C(F)(F)F)c1cc(Cl)ccc1NS(=O)(=O)C(F)(F)F`: the results for the Activity in the assay with Rhipicephalus sanguineus [3] and with Ctenocephalides felis [1] were 88% and 100%, respectively. For the same compound, in the assay on Haemonchus contortus [2], the LD99 is 0.56 µM. Besides, in the assay with Ctenocephalides felis [7], the LC50 was determined as 19 ng/cm2.

In the assay on Ctenocephalides felis [1], `C/C(=N\Oc1ccccc1)c1cc(Cl)ccc1NS(=O)(=O)C(F)(F)F` registered an Activity of 6%. Moreover, the LD99 in the assay with Haemonchus contortus [2] is 14 µM.

As for `C/C(=N\OCC(F)(F)F)c1cc(Cl)ccc1NS(=O)(=O)C(F)(F)F`, the Activity in the assay with Rhipicephalus sanguineus [3] turned out to be 82%; in the assay on Ctenocephalides felis [6], 100%. For the same compound, the LD50 with Rhipicephalus sanguineus [4] is 0.94 µg. The LD99 in the assay with Haemonchus contortus [2] came to 18 µM. In addition, in the assay on Ctenocephalides felis [7], the LC50 was found to be 6 ng/cm2.

On to `CC/C(=N\OCc1ccc(C(C)(C)C)cc1)c1cc(Cl)ccc1NS(=O)(=O)C(F)(F)F`, for which the Activity in the assay on Ctenocephalides felis [1] is reported as 8%. The same compound registered an LD99 in the assay on Haemonchus contortus [2] of 6.9 µM.

Regarding `CC/C(=N\OC1CCCC1)c1cc(Cl)ccc1NS(=O)(=O)C(F)(F)F`, the Activity in the assay with Rhipicephalus sanguineus [3] and with Ctenocephalides felis [6] was 100% throughout. Further, the LD50 in the assay with Rhipicephalus sanguineus [4] turned out to be 1.5 µg. The compound also displayed an LD99 with Haemonchus contortus [2] of 25 µM. In the assay with Ctenocephalides felis [7], this compound came in with an LC50 of 21 ng/cm2.

As for `CC/C(=N\OCC1CC1)c1cc(Cl)ccc1NS(=O)(=O)C(F)(F)F`, the Activity with Rhipicephalus sanguineus [3] and with Ctenocephalides felis [6] was 100% in each case. This compound showed an LD50 with Rhipicephalus sanguineus [4] of 1.2 µg. The LD99 in the assay on Haemonchus contortus [2] amounted to 36 µM. In the assay on Ctenocephalides felis [7], the LC50 was determined as 8 ng/cm2.

On to `CCC/C(=N\OCc1ccc(C(F)(F)F)cc1)c1cc(Cl)ccc1NS(=O)(=O)C(F)(F)F`, for which the Activity with Ctenocephalides felis [1] is listed as 36%. The compound also registered an LD99 in the assay on Haemonchus contortus [2] of 3.2 µM.

As to `CCO/N=C(\C)c1cc(Br)ccc1NS(=O)(=O)C(F)(F)F`, the Activity in the assay with Rhipicephalus sanguineus [3] and in the assay on Ctenocephalides felis [6] was 100% in each case. The LD50 with Rhipicephalus sanguineus [4] worked out at 1.2 µg. In the assay on Haemonchus contortus [2], this compound had an LD99 above 13 µM. In addition, the LC50 in the assay on Ctenocephalides felis [7] came to 11 ng/cm2.

On to `CC/C(=N\OCc1ccc(Cl)cc1)c1cc(Cl)ccc1NS(=O)(=O)C(F)(F)F`, for which the Activity with Rhipicephalus sanguineus [3] stood at 83%; in the assay on Ctenocephalides felis [6], 100%. The compound further returned an LD50 in the assay with Rhipicephalus sanguineus [4] of 2.5 µg. This compound also showed an LD99 in the assay with Haemonchus contortus [2] of 1.7 µM. In the assay on Ctenocephalides felis [7], this compound came in with an LC50 of 12 ng/cm2.

Regarding `C/C(=N\OCc1ccc(C(F)(F)F)cc1C(F)(F)F)c1cc(Cl)ccc1NS(=O)(=O)C(F)(F)F`, the Activity in the assay with Ctenocephalides felis [1] was determined as 2%. In addition, the LD99 was 1.1 µM in assay [8]; 0.53 µM with Haemonchus contortus [9]; 0.53 µM in the assay with Haemonchus contortus [10]; 0.22 µM in the assay on Haemonchus contortus [2]; 2.2 µM in [11].

In the case of `O=S(=O)(Nc1ccc(Cl)cc1/C=N/OCc1ccc(Cl)cc1Cl)C(F)(F)F`, the Activity with Ctenocephalides felis [1] came to 12%. The LD99 with Haemonchus contortus [2] was 2 µM.

In the case of `CC(C)/C(=N\OCc1ccc(C(F)(F)F)cc1C(F)(F)F)c1cc(Cl)ccc1NS(=O)(=O)C(F)(F)F`, the Activity in the assay on Ctenocephalides felis [1] was found to be 10%. In the assay with Haemonchus contortus [2], the LD99 was determined as 1.5 µM.

Regarding `C/C(=N\Oc1ccc(F)cc1)c1cc(Cl)ccc1NS(=O)(=O)C(F)(F)F`, the Activity in the assay on Rhipicephalus sanguineus [3] and in the assay with Ctenocephalides felis [6] was 100% in each case. For the same compound, the LD50 in the assay on Rhipicephalus sanguineus [4] turned out to be 1.3 µg. In addition, in the assay on Haemonchus contortus [2], the LD99 was 4.6 µM. This compound also came in with an LC50 in the assay with Ctenocephalides felis [7] of 10 ng/cm2.

Take `CC/C(=N\Oc1ccc(F)cc1)c1cc(Cl)ccc1NS(=O)(=O)C(F)(F)F`: the Activity with Rhipicephalus sanguineus [3] worked out at 92%; with Ctenocephalides felis [6] it was 100%. This compound gave an LD50 in the assay with Rhipicephalus sanguineus [4] of 1.5 µg. Further, the LD99 in the assay with Haemonchus contortus [2] came to 3.5 µM. Further, in the assay with Ctenocephalides felis [7], the LC50 is listed as 35 ng/cm2.

As to `C/C(=N\OCC1CCCC1)c1cc(Cl)ccc1NS(=O)(=O)C(F)(F)F`, the figures for the Activity with Rhipicephalus sanguineus [3] and with Ctenocephalides felis [6] were 100% and 97%, respectively. Also, the LD50 in the assay on Rhipicephalus sanguineus [4] came out at 2.2 µg. This compound also came in with an LD99 in the assay on Haemonchus contortus [2] of 7.5 µM. This compound gave an LC50 in the assay with Ctenocephalides felis [7] of 18 ng/cm2.

Take `C=CCO/N=C(\CC)c1cc(Cl)ccc1NS(=O)(=O)C(F)(F)F`: the Activity with Rhipicephalus sanguineus [3] and with Ctenocephalides felis [6] was 100% in each case. Moreover, in the assay with Rhipicephalus sanguineus [4], the LD50 amounted to 0.67 µg. For the same compound, in the assay on Haemonchus contortus [2], the LD99 amounted to 32 µM. Moreover, the LC50 with Ctenocephalides felis [7] amounted to 21 ng/cm2.

`CC/C(=N\OCc1ccc(Cl)cc1Cl)c1cc(Cl)ccc1NS(=O)(=O)C(F)(F)F` came in with an Activity with Ctenocephalides felis [1] of 94%. In addition, the LD99 with Haemonchus contortus [2] worked out at 0.84 µM.

In turn, `CC(C)/C(=N\OCc1ccc(C(F)(F)F)cc1)c1cc(Cl)ccc1NS(=O)(=O)C(F)(F)F` yielded an Activity in the assay with Ctenocephalides felis [1] of 12%. In addition, the LD99 in the assay with Haemonchus contortus [2] was determined as 2.6 µM.

As to `CC(C)/C(=N\Oc1ccc(Cl)cc1)c1cc(Cl)ccc1NS(=O)(=O)C(F)(F)F`, the Activity in the assay on Rhipicephalus sanguineus [3] turned out to be 65%; with Ctenocephalides felis [6] it was 100%. Moreover, the LD50 in the assay on Rhipicephalus sanguineus [4] amounted to 1.7 µg. In the assay on Haemonchus contortus [2], this compound came in with an LD99 of 11 µM. Also, the LC50 in the assay on Ctenocephalides felis [7] turned out to be 71 ng/cm2.

`CCC/C(=N\OCc1ccc(C(F)(F)F)cc1C(F)(F)F)c1cc(Cl)ccc1NS(=O)(=O)C(F)(F)F` returned an Activity in the assay with Ctenocephalides felis [1] of 79%. In the assay on Haemonchus contortus [2], this compound came in with an LD99 of 2.5 µM.
